Counter-ions that a name gives are not always drawn. Like-named read-outs stand apart in the source and are kept apart here.
Biological target: canine TRPM8 (Canis lupus familiaris, UniProt Q1A7N1)
Test: In vitro canine TRPM8 functional assay (Ca2+-sensitive fluorescent dye, icilin activation)
Type: cell-based
Method: The functional activity of representative compounds of the formula (I) of the present invention was quantified by measuring changes in intracellular calcium concentration using a Ca^2+-sensitive fluorescent dye. The changes in fluorescent signal were monitored by a fluorescence plate reader, either a FLIPR™ (Molecular Devices) or FDSS (Hamamatsu).
HEK293 cells stably expressing canine TRPM8 were routinely grown as monolayers in Dulbecco's minimum essential medium supplemented with 10% FBS, 2 mM L-glutamine, 100 units/mL penicillin, 100 ug/mL streptomycin and 400 μg/mL G418. Cells were maintained in 5% CO2 at 37° C. At 24 hr prior to assay, cells were seeded in black wall, clear-base poly-D-lysine coated 384-well plates (BD Biosciences, NJ, USA) at a density of 5,000 cells per well in culture medium and grown overnight in 5% CO2 at 37° C. On assay day, growth media was removed, and cells were loaded with Calcium 3 Dye (Molecular Devices) for 35 min at 37° C., under 5% CO2 and then incubated for 25 min at room temperature and atmosphere. Subsequently, cells were tested for agonist-induced increases in intracellular Ca^2+ levels using FLIPR™ or FDSS. Cells were treated with compounds of the formula (I) at varying concentrations and intracellular Ca^2+ was measured for 5 min prior to the addition of icilin to each well to achieve a final concentration that produces an approximately 80% maximal response.
Maximal fluorescence intensity (FI) achieved upon addition of icilin was exported from the FLIPR™ or FDSS software and further analyzed using GraphPad Prism 3.02 (Graph Pad Software Inc., CA, U.S.A.). Basal FI was subtracted prior to normalizing data to percent of maximal response. Curves were generated using the average of quadruplicate wells for each data point using nonlinear regression of either sigmoidal dose response or sigmoidal dose response (variable slope). Finally, the EC50 and IC50 values were calculated with the best-fit curve determined by GraphPad Prism

[1] = 0.2 μM compound, HEK293 cells stably expressing canine TRPM8, icilin-induced Ca2+ response
[2] = HEK293 cells stably expressing canine TRPM8, icilin-induced Ca2+ response, eight-point concentration-response
[3] = HEK293, 0.2 μM compound, HEK293 cells stably expressing canine TRPM8, icilin-induced Ca2+ response

Sequence of canine TRPM8 (Q1A7N1 1-1104): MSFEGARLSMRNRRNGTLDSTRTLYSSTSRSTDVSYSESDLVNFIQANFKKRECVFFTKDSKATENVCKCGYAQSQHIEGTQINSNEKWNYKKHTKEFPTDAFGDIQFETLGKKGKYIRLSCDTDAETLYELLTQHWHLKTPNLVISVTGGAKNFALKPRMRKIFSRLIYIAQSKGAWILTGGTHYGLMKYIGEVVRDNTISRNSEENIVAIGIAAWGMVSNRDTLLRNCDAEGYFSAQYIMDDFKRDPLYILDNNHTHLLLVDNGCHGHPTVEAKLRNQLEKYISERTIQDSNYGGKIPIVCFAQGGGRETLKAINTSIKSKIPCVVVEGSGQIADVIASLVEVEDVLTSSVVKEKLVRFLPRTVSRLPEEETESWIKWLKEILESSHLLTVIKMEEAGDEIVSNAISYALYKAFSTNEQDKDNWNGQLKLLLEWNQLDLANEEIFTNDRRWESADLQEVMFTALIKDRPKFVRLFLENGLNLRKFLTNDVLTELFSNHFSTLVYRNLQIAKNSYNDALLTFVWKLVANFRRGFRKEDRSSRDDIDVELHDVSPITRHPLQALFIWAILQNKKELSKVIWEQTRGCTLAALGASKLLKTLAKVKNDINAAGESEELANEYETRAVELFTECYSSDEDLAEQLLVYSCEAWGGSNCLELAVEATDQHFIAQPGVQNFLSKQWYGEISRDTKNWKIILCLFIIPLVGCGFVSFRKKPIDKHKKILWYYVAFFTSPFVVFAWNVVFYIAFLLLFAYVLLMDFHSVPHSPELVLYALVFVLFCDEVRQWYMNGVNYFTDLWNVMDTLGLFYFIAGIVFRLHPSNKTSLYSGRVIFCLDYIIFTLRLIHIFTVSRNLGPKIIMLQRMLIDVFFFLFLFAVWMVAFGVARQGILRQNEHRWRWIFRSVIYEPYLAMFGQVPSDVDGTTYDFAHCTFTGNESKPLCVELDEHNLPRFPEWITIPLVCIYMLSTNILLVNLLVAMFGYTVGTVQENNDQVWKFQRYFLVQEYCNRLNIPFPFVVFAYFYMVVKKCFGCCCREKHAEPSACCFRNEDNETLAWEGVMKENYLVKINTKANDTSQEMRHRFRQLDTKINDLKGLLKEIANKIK

Row | SMILES | IC50 [2] [nM] | inhibition at 0.2 µM [1] [%] | also measured
1 | Cn1nc(C(C)(C)C)c(Cl)c1-c1nc2nc(-c3ccccc3C(F)(F)F)cc(C(F)(F)F)c2[nH]1 [Compound 1] | 27 |  | % Inh @ 0.2 μM [1]: 99%
2 | COc1nc(-c2ccccc2OC(F)(F)F)cc2nc(-c3c(Cl)c(C(C)(C)C)nn3C)[nH]c12 [Compound 2, 2-(5-tert-Butyl-4-chloro-2-methyl-2H-pyrazol-3-yl)-4-methoxy-6-(2-trifluoromethoxy-phenyl)-3H-imidazo[4,5-c]pyridine sodium salt] | 13 | 100 | 
3 | Cn1nc(C(C)(C)C)cc1-c1nc2nc(-c3ccccc3C(F)(F)F)cc(Cl)c2[nH]1 [Compound 6, 2-(5-tert-butyl-2-methyl-2H-pyrazol-3-yl)-7-chloro-5-(2-trifluoromethyl-phenyl)-1H-imidazo[4,5-b]pyridine sodium salt] | 69 | 65 | 
4 | CC(C)(C)c1cc(-c2nc3nc(-c4ccccc4C(F)(F)F)cc(Cl)c3[nH]2)on1 [Compound 7, 2-(3-tert-Butyl-isoxazol-5-yl)-7-chloro-5-(2-trifluoromethyl-phenyl)-1H-imidazo[4,5-b]pyridine] | 38 | 99 | 
5 | COc1nc(-c2ccccc2C(F)(F)F)cc2nc(-c3c(Cl)c(C(C)(C)C)nn3C)[nH]c12 [Compound 9, 2-(5-tert-Butyl-4-chloro-2-methyl-2H-pyrazol-3-yl)-4-methoxy-6-(2-trifluoromethyl-phenyl)-3H-imidazo[4,5-c]pyridine methanesulfonic acid salt, hydrochloride] |  | 100 | 
6 | CC(C)(C)c1cc(-c2nc3nc(-c4ccccc4C(F)(F)F)cc(C(F)(F)F)c3[nH]2)on1 [Compound 10, 2-(3-tert-Butyl-isoxazol-5-yl)-7-trifluoromethyl-5-(2-trifluoromethyl-phenyl)-1H-imidazo[4,5-b]pyridine] | 16 | 101 | 
7 | COc1nc(-c2ccccc2Cl)cc2nc(-c3cc(C(C)(C)C)nn3C)[nH]c12 [Compound 12, 2-(5-tert-Butyl-2-methyl-2H-pyrazol-3-yl)-6-(2-chloro-phenyl)-4-methoxy-3H-imidazo[4,5-c]pyridine] | 11 | 101 | 
8 | COc1nc(-c2ccccc2C(F)(F)F)cc2[nH]c(-c3onc(C(C)(C)C)c3C#N)nc12 [Compound 13, 3-tert-Butyl-5-[4-methoxy-6-(2-trifluoromethyl-phenyl)-1H-imidazo[4,5-c]pyridine-2-yl]-isoxazole-4-carbonitrile methanesulfonic acid salt] | 46 | 94 | 
9 | CC(C)Oc1nc(-c2ccccc2C(F)(F)F)cc2nc(-c3c(C#N)c(C(C)(C)C)nn3C)[nH]c12 [Compound 14, 3-tert-Butyl-5-[4-isopropoxy-6-(2-trifluoromethyl-phenyl)-3H-imidazo[4,5-c]pyridin-2-yl]-1-methyl-1H-pyrazole-4-carbonitrile benzenesulfonic acid salt] | 1.2 | 99 | 
10 | Cn1nc(C(C)(C)C)c(C#N)c1-c1nc2cc(-c3ccccc3C(F)(F)F)nc(OCC(F)(F)F)c2[nH]1 [Compound 15, 3-tert-Butyl-1-methyl-5-[4-(2,2,2-trifluoro-ethoxy)-6-(2-trifluoromethyl-phenyl)-3H-imidazo[4,5-c]pyridine-2-yl]-1H-pyrazole-4-carbonitrile methanesulfonic acid salt] | 1.8 | 100 | 
11 | CC(C)Oc1nc(-c2ccccc2C(F)(F)F)cc2nc(-c3c(Cl)c(C(C)(C)C)nn3C)[nH]c12 [Compound 16, 2-(5-tert-Butyl-4-chloro-2-methyl-2H-pyrazol-3-yl)-4-isopropoxy-6-(2-trifluoromethyl-phenyl)-3H-imidazo[4,5-c]pyridine benzenesulfonic acid salt] | 0.59 | 99 | 
12 | COc1nc(-c2ccccc2Cl)cc2nc(-c3c4c(nn3C)C3(CCCCC3)CC4)[nH]c12 [Compound 18, 2-(2-methyl-6,6-spirocyclohexyl-2,4,5,6-tetrahydro-cyclopenta-2H-pyrazol-3-yl)-4-methoxy-6-(2-chloro-phenyl)-3H-imidazo[4,5-c]pyridine] |  |  | % Inh @ 0.2 μM: 99%; IC50: 8.2 nM
13 | Cn1nc(C(C)(C)C)c(Cl)c1-c1nc2cc(-c3ccccc3C(F)(F)F)nc(OCC(F)(F)F)c2[nH]1 [Compound 19, 2-(5-tert-Butyl-4-chloro-2-methyl-2H-pyrazol-3-yl)-4-(2,2,2-trifluoroethoxy)-6-(2-trifluoromethyl-phenyl)-3H-imidazo[4,5-c]pyridine methanesulfonic acid salt] | 0.84 | 100 | 
14 | COCCOc1nc(-c2ccccc2C(F)(F)F)cc2nc(-c3c(Cl)c(C(C)(C)C)nn3C)[nH]c12 [Compound 20, 2-(5-tert-Butyl-4-chloro-2-methyl-2H-pyrazol-3-yl)-4-(2-methoxy-ethoxy)-6-(2-trifluoromethyl-phenyl)-3H-imidazo[4,5-c]pyridine benzenesulfonic acid salt] | 0.95 | 99 | 
15 | COCCOc1nc(-c2ccccc2C(F)(F)F)cc2nc(-c3c(C#N)c(C(C)(C)C)nn3C)[nH]c12 [Compound 21, 3-tert-Butyl-5-[4-(2-methoxy-ethoxy)-6-(2-trifluoromethyl-phenyl)-3H-imidazo[4,5-c]pyridine-2-yl]-1-methyl-1H-pyrazole-4-carbonitrile benzenesulfonic acid salt] | 0.69 | 99 | 
16 | Cn1nc(C(C)(C)C)c(C#N)c1-c1nc2cc(-c3ccccc3C(F)(F)F)nc(N3CCCCC3)c2[nH]1 [Compound 22, 3-tert-Butyl-1-methyl-5-[4-piperidin-1-yl-6-(2-trifluoromethyl-phenyl)-3H-imidazo[4,5-c]pyridine-2-yl]-1H-pyrazole-4-carbonitrile] | 1.4 | 99 | 
17 | Cn1nc(C(C)(C)C)c(Cl)c1-c1nc2nc(-c3ccccc3Cl)ccc2[nH]1 [Compound 23, 2-(5-tert-Butyl-4-chloro-2-methyl-2H-pyrazol-3-yl)-5-(2-chloro-phenyl)-1H-imidazo[4,5-b]pyridine hydrochloride] |  |  | inhibition at 0.2 µM [3]: 96%
18 | CN1CCN(c2nc(-c3ccccc3C(F)(F)F)cc3nc(-c4c(C#N)c(C(C)(C)C)nn4C)[nH]c23)CC1 [Compound 24, 3-tert-Butyl-1-methyl-5-[4-(4-methyl-piperazin-1-yl)-6-(2-trifluoromethyl-phenyl)-3H-imidazo[4,5-c]pyridin-2-yl]-1H-pyrazole-4-carbonitrile methanesulfonic acid salt] | 7.4 |  | inhibition at 0.2 µM [3]: 99%
19 | Cn1nc(C(C)(C)C)c(Cl)c1-c1nc2nc(-c3ccccc3OC(F)(F)F)ccc2[nH]1 [Compound 25, 2-(5-tert-Butyl-4-chloro-2-methyl-2H-pyrazol-3-yl)-5-(2-trifluoromethoxy-phenyl)-1H-imidazo[4,5-b]pyridine hydrochloride] | 12 |  | inhibition at 0.2 µM [3]: 100%
20 | CC(C)(C)c1cc(-c2nc3nc(-c4ccccc4Cl)ccc3[nH]2)on1 [Compound 26, 2-(3-tert-Butyl-isoxazol-5-yl)-5-(2-chloro-phenyl)-1H-imidazo[4,5-b]pyridine] | 35 | 100 | 
21 | Cn1nc(C(C)(C)C)cc1-c1nc2nc(-c3ccccc3Cl)ccc2[nH]1 [Compound 27, 2-(5-tert-Butyl-2-methyl-2H-pyrazol-3-yl)-5-(2-chloro-phenyl)-1H-imidazo[4,5-b]pyridine] | 124 | 73 | 
22 | CN1CCN(c2nc(-c3ccccc3C(F)(F)F)cc3nc(-c4c(Cl)c(C(C)(C)C)nn4C)[nH]c23)CC1 [Compound 28, 2-(5-tert-Butyl-4-chloro-2-methyl-2H-pyrazol-3-yl)-4-(4-methyl-piperazin-1-yl)-6-(2-trifluoromethyl-phenyl)-3H-imidazo[4,5-c]pyridine methanesulfonic acid salt] | 11 |  | inhibition at 0.2 µM [3]: 99%
23 | CC(C)(C)c1cc(-c2nc3nc(-c4ccccc4OC(F)(F)F)ccc3[nH]2)on1 [Compound 29, 2-(3-tert-Butyl-isoxazole-5-yl)-5-(2-trifluoromethoxy-phenyl)-1H-imidazo[4,5-b]pyridine] | 33 | 99 | 
24 | CC(C)(C)c1cc(-c2nc3nc(-c4ccccc4F)ccc3[nH]2)on1 [Compound 30, 2-(3-tert-Butyl-isoxazol-5-yl)-5-(2-fluoro-phenyl)-1H-imidazo[4,5-b]pyridine] | 87 | 87 | 
25 | CC(C)(C)c1cc(-c2nc3nc(-c4ccccc4C(F)(F)F)ccc3[nH]2)on1 [Compound 31, 2-(3-tert-Butyl-isoxazol-5-yl)-5-(2-trifluoromethyl-phenyl)-1H-imidazo[4,5-b]pyridine] | 18 | 100 | 

Source: US9409915B2, “Substituted aza-bicyclic imidazole derivatives useful as TRPM8 receptor modulators” (Janssen Pharmaceutica NV, priority 2010, dated 2016)
